According to US20240417370A1, “LIPIDS FOR USE IN LIPID NANOPARTICLE FORMULATIONS” (Acuitas Therapeutics, Inc., priority 2023, published 2024):

Tests used:
[1] = test system: luciferase expression in the liver; assay: Luciferase mRNA in vivo evaluation using lipid nanoparticle compositions; parameters: species or system mice; conditions: LNP-formulated lipid, tail vein injection, ng luciferase/g liver 4 hours after administration; for Liver Luc @ 0.3 mg/kg: 0.3 mg mRNA/kg; for Liver Luc @ 1.0 mg/kg: 1.0 mg mRNA/kg
Experimental: (§1) A lipid of structure (I), DSPC, cholesterol and PEG-lipid are solubilized in ethanol at a molar ratio of 50:10:38.5:1.5 or 47.5:10:40.7:1.8. Lipid nanoparticles (LNP) are prepared at a total lipid to mRNA weight ratio of approximately 10:1 to 40:1. Briefly, the mRNA is diluted to 0.2 mg/mL in 10 to 50 mM citrate buffer, pH 4 to 6 or 10 to 25 mM acetate buffer, pH 4. Syringe pumps are used to mix the ethanolic lipid solution with the mRNA aqueous solution at a ratio of about 1:5 to 1:3 (vol/vol) with total flow rates above 15 mL/min. The ethanol is then removed, and the external buffer replaced with PBS by dialysis. Finally, the lipid nanoparticles are filtered through a 0.2 µm pore sterile filter.
Studies are performed in 6-8-week-old female C57BL/6 mice (Charles River) 8-10-week-old CD-1 mice (Charles River or Inotiv) according to guidelines established by an institutional animal care committee (ACC) and the Canadian Council on Animal Care (CCAC). Varying doses of mRNA-lipid nanoparticle are systemically administered by tail vein injection and animals euthanized at a specific time point (e.g., 4 hours) post-administration. Liver and spleen are collected in pre-weighed tubes, weights determined, immediately snap frozen in liquid nitrogen, and stored at −80° C. until processing for analysis.
For liver, approximately 50 mg is dissected for analyses in a 2 mL FastPrep tubes (MP Biomedicals, Solon OH). ¼″ ceramic sphere (MP Biomedicals) is added to each tube and 500-750 μL of Glo Lysis Buffer—GLB (Promega, Madison WI) equilibrated to room temperature is added to liver tissue. Liver tissues are homogenized with the FastPrep24 instrument (MP Biomedicals) at 2×6.0 m/s for 15 seconds. Homogenate is incubated at room temperature for 5 minutes prior to a 1:4 to 1:6 dilution in GLB and assessed using SteadyGlo Luciferase assay system (Promega). Specifically, 50 μL of diluted tissue homogenate is reacted with 50 μL of SteadyGlo substrate, shaken for 10 seconds followed by 5-minute incubation and then luminescence was quantitated using a FilterMax F5 Microplate Reader (Molecular Devices, USA). The amount of protein assayed is determined by using the BCA protein assay kit (Pierce, Rockford, IL). Relative luminescence units (RLU) were then normalized to total μg protein or weight (g) of tissue assayed. To convert RLU to ng luciferase a standard curve is generated with QuantiLum Recombinant Luciferase (Promega).
The FLuc mRNA (L-7202) from Trilink Biotechnologies will express a luciferase protein, originally isolated from the firefly, Photinus pyralis. Flue is commonly used in mammalian cell culture to measure both gene expression and cell viability. It emits bioluminescence in the presence of the substrate, luciferin. This capped and polyadenylated mRNA is modified with 5-methoxyuridine and optimized for mammalian systems.
(§2) Representative compounds of the disclosure shown in Table 2 were formulated using the following molar ratio: 50% cationic lipid/10% distearoylphosphatidylcholine (DSPC)/38.5% Cholesterol/1.5% PEG lipid 2-[2-(ω-methoxy(polyethyleneglycol2000)ethoxy]-N,N-ditetradecylacetamide) or 47.5% cationic lipid/10% DSPC/40.7% Cholesterol/1.8% PEG lipid. Relative activity was determined by measuring luciferase expression in the liver 4 hours following administration via tail vein injection as described in Example 1 or by measuring the amount of human IgG in mouse serum as described in example 2. The activity was compared at a dose of 1.0 or 0.5 or 0.3 mg mRNA/kg and expressed as ng luciferase/g liver measured 4 hours after administration, as described in Example 1 or as μg IgG/mL serum measured 24 hours after administration, as described in Example 2. Compound numbers in Table 2 refer to the compound numbers of Table 1.

human IgG in mouse serum = assay: Immunoglobulin G (IgG) mRNA in vivo evaluation using lipid nanoparticle compositions; parameters: species or system mice; conditions: LNP-formulated lipid, tail vein injection, μg IgG/mL serum 24 hours after administration; for Serum IgG @ 0.3 mg/kg: 0.3 mg mRNA/kg; for Serum IgG @ 1.0 mg/kg: 1.0 mg mRNA/kg
Experimental: as §1, with “4 to 6.” for “4.”
Studies are performed in 6-8-week-old CD-1/ICR mice (Envigo, Charles River, or Inotiv) according to guidelines established by an institutional animal care committee (ACC) and the Canadian Council on Animal Care (CCAC). Varying doses of mRNA-lipid nanoparticle are systemically administered by tail vein injection and animals euthanized at a specific time point (e.g., 24 hours) post-administration. The whole blood is collected, and the serum subsequentially separated by centrifuging the tubes of the whole blood at 2000×g for 10 minutes at 4° C. and stored at −80° C. until use for analysis.
For immunoglobulin G (IgG) ELISA (Life Diagnostics Human IgG ELISA kit), the serum samples are diluted at 100 to 20,000 folds with 1× diluent solution. 100 μL of diluted serum is dispensed into anti-human IgG coated 96-well plate in duplicate alongside human IgG standards and incubated in a plate shaker at 150 rpm at 25° C. for 45 minutes. The wells are washed 5 times with 1× wash solution using a plate washer (400 μL/well). 100 μL of HRP conjugate is added into each well and incubated in a plate shaker at the same condition above. The wells are washed 5 times again with 1× wash solution using a plate washer (400 μL/well). 100 μL of TMB reagent is added into each well and incubated in a plate shaker at the same condition above. The reaction is stopped by adding 100 μL of Stop solution to each well. The absorbance is read at 450 nm (A450) with a microplate reader. The amount of human IgG in mouse serum is determined by plotting A450 values for the assay standard against human IgG concentration.
as §2

| Structure (SMILES) | Liver Luc @ 0.3 mg/kg [1] [ng/g] | Liver Luc @ 1.0 mg/kg [1] [ng/g] | Serum IgG @ 0.3 mg/kg (human IgG in mouse serum) [µg/mL] | Serum IgG @ 1.0 mg/kg (human IgG in mouse serum) [µg/mL] |
| --- | --- | --- | --- | --- |
| CCCCCCCCCCN(CCCCCCCCCC)C(=O)CCCCCCCN(CCCCCCCC(=O)N(CCCCCCCCCC)CCCCCCCCCC)CC[C@H]1C[C@@H](O)C1 [(1S, 3R) I-1, 8,8′-((2-((1S,3R)-3-hydroxycyclobutyl)ethyl)azanediyl)bis(N,N-didecyloctanamide)] | 18927 ± 2102 | 79233 ± 12026 |  |  |
| CCCCCCCCCCN(CCCCCCCCCC)C(=O)CCCCCCCN(CCCCCCCC(=O)N(CCCCCCCCCC)CCCCCCCCCC)C[C@H]1C[C@H](O)C1 [(1R, 3R) I-2, 8,8′-((((1R,3R)-3-hydroxycyclobutyl)methyl)azanediyl)bis(N,N-didecyloctanamide)] | 12651 ± 3017 | 82113 ± 14450 |  |  |
| CCCCCCCCCCN(CCCCCCCCCC)C(=O)CCCCCCCN(CCCCCCCC(=O)N(CCCCCCCCCC)CCCCCCCCCC)C[C@H]1C[C@@H](O)C1 [(1S, 3S) I-2, 8,8′-((((1S,3S)-3-hydroxycyclobutyl)methyl)azanediyl)bis(N,N-didecyloctanamide)] | 10872 ± 2411 | 91854 ± 15303 |  |  |
| CCCCCCCCCCN(CCCCCCCCCC)C(=O)CCCCCCCN(CCCCCCCC(=O)N(CCCCCCCCCC)CCCCCCCCCC)[C@H]1CCC[C@H]1O [(1S, 2R) I-15, 8,8′-(((1S,2R)-2-hydroxycyclopentyl)azanediyl)bis(N,N-didecyloctanamide)] |  |  | 33.97 ± 18.40 | 225.79 ± 54.78 |
| CCCCCCCCCCN(CCCCCCCCCC)C(=O)CCCCCCCN(CCCCCCCC(=O)NC(CCCCCCCCC)CCCCCCCCC)[C@H]1CC[C@@H](O)CC1 [(1S, 4S) I-58, N,N-didecyl-8-(((1s,4s)-4-hydroxycyclohexyl)(8-(nonadecan-10-ylamino)-8-oxooctyl)amino)octanamide] |  |  | 61.75 ± 11.64 |  |
| CCCCCCCCCCN(CCCCCCCCCC)C(=O)CCCCCCCN(CCCCCCCC(=O)N(CCCCCCCCCC)CCCCCCCCCC)CC1CCC(O)C1 (stereo not shown) [Compound I-4, 8,8′-(((3-hydroxycyclopentyl)methyl)azanediyl)bis(N,N-didecyloctanamide)] |  |  | 32.39 ± 3.12 | 155.20 ± 15.34 |
| CCCCCCCCCCN(CCCCCCCCCC)C(=O)CCCCCCCN(CCCCCCCC(=O)N(CCCCCCCCCC)CCCCCCCCCC)[C@H]1CC[C@H](O)CC1 [(1R, 4R) I-9, 8,8′-(((1R,4R)-4-hydroxycyclohexyl)azanediyl)bis(N,N-didecyloctanamide)] |  |  | 45.52 ± 6.25 | 204.57 ± 48.15 |
| CCCCCCCCCCN(CCCCCCCCCC)C(=O)CCCCCCCN(CCCCCCCC(=O)N(CCCCCCCCCC)CCCCCCCCCC)[C@@H]1CCC[C@@H](O)C1 [(1R, 3R) I-17, 8,8′-(((1R,3R)-3-hydroxycyclohexyl)azanediyl)bis(N,N-didecyloctanamide)] |  |  | 27.97 ± 3.37 | 178.14 ± 33.27 |
| CCCCCCCCCCCCN(CCCCCC)C(=O)CCCCCCCN(CCCCCCCC(=O)N(CCCCCCCCCC)CCCCCCCCCC)[C@H]1CC[C@@H](O)CC1 [(1S, 4S) I-56, N,N-didecyl-8-((8-(dodecyl(hexyl)amino)-8-oxooctyl)((1s,4s)-4-hydroxycyclohexyl)amino)octanamide] |  |  | 52.9 ± 17.00 |  |
